From patent publication US8343893B2, “Substituted enaminocarbonyl compounds” (Bayer Cropscience AG, priority 2009, dated 2013)

Tested on: green peach aphid (Myzus persicae)
Assay: Myzus test (MYZUPE spray treatment)
Format: in vivo
Settings: after 5 days; application rate 500 g/ha; spray on Chinese cabbage discs; 100% = all aphids killed
Experimental: Myzus Test (MYZUPE Spray Treatment) Solvent: 78 parts by weight of acetone and 1.5 parts by weight of dimethylformamide Emulsifier: 0.5 part by weight of alkylaryl polyglycol ether To prepare an active ingredient formulation, 1 part by weight of active ingredient is mixed with the specified amounts of solvent and emulsifier, and the concentrate is diluted to the desired concentration with emulsifier-containing water. Discs of Chinese cabbage (Brassica pekinensis) infested with all stages of the green peach aphid (Myzus persicae) are sprayed with an active ingredient formulation of the desired concentration. After the desired time, the efficacy in % is determined. 100% means that all aphids have been killed; 0% means that no aphids have been killed.

CC(=O)OCC(=CC(=O)OC(C)C)N(C)Cc1ccc(Cl)nc1 [Compound 1]
efficacy in %: 80%
